Measurements taken from article PMC10290124 (Nature Communications, 2023).

Assays:
[1] = biological target: T1, human TRPV4 (hTRPV4) (Homo sapiens, UniProt Q9HBA0); test: cryo-EM structure ([…] Å, open state); EC50 from Fura-2 calcium imaging in HEK […] cells; assay type: cell-based; design: with RhoA
[2] = biological target: T2, RhoA (Homo sapiens, UniProt P61586); test: cryo-EM structure of the hTRPV4-RhoA complex (ARD-RhoA local refinement, […] Å); assay type: binding
T2 construct: endogenous RhoA from HEK 293S cells, co-purified with hTRPV4; with TRPV4
T2 sequence (P61586 1-190): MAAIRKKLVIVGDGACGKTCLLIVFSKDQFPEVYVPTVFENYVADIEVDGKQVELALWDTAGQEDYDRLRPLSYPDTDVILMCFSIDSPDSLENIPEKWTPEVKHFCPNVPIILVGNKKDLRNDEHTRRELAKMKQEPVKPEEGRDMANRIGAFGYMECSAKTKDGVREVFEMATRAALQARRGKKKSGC
T2 sequence (Q9HBA0 whole entry partner): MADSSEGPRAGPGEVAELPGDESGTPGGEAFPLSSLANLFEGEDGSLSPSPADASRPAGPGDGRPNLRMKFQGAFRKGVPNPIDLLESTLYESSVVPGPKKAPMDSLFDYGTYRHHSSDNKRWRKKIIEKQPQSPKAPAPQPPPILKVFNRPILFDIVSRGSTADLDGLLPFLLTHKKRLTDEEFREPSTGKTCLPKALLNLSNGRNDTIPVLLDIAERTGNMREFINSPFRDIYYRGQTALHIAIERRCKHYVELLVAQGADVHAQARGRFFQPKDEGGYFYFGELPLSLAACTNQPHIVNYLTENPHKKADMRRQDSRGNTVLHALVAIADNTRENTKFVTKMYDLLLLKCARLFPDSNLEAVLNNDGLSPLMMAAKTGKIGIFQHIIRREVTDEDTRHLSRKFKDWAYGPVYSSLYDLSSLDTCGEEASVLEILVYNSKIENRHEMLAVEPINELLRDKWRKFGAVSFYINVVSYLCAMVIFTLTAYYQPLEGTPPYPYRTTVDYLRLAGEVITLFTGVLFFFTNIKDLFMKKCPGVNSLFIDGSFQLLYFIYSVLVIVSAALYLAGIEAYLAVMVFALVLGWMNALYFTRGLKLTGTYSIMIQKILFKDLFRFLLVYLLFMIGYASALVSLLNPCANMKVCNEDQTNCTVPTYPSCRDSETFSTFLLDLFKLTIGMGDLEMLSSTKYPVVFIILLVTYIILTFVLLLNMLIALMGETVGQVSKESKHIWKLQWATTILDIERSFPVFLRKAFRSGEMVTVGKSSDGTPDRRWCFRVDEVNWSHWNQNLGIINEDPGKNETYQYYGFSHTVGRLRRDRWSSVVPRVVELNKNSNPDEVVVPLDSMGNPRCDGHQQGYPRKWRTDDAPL

[3] = biological target: T1, human TRPV4 (hTRPV4)

T1 sequence (Q9HBA0 whole entry): as the sequence (Q9HBA0 whole entry partner) above
T1 sequence (P61586 1-190 partner): as the sequence (P61586 1-190) above

CCCCCCCCCC(=O)O[C@@H]1[C@@H](C)[C@@]2(O)[C@@H](C=C(CO)C[C@@]3(O)C(=O)C(C)=C[C@@H]23)[C@@H]2C(C)(C)[C@]12OC(=O)CCCCCCCCC [4α-PDD, 4α-phorbol 12,13-didecanoate]
EC50 [1]: 450 ± 39 nM

Nc1nc2c(ncn2[C@@H]2O[C@H](CO[P@](=O)(O)OP(=O)(O)O)[C@@H](O)[C@H]2O)c(=O)[nH]1 [GDP, guanosine diphosphate]
cryo-EM structure of the hTRPV4-RhoA complex (ARD-RhoA local refinement, 3.49 Å) [2]: unambiguously identify the endogenous molecule of guanosine diphosphate (GDP) bound in the RhoA ligand-binding pocket

Cc1c(C(=O)Nc2cccc(C(F)(F)F)c2)cc(-c2ccccc2)n1CCCN1CCOCC1 [HC-067047]
IC50 [3]: 25 ± 6.2 nM
